{"source": "patent US20260272879A1", "about": "“ANION-BINDING AROMATIC OLIGOAMIDE MACROCYCLES AND METHODS OF MAKING AND USING SAME” (The Research Foundation for The State University of New York, priority 2023, published 2026)", "key": {"[1]": {"experiment": "Isothermal titration calorimetry (ITC), IO4^−", "type": "binding", "details": "25° C.", "protocol": "(§1) Isothermal titration calorimetry (ITC) experiments were performed using a MicroCal VP-ITC. ITC experiments were conducted by adding ~1.5 mL of a solution containing c5a to the sample cell. Followed by titrating 10 μL aliquots of a solution containing the corresponding TBA·X salt (~10-14× concentration of c5a solution) from the syringe into the sample cell. Heats of dilution were obtained by titrating 10 μL aliquots of the TBA·X solution from the syringe into the sample cell in the absence of c5a. The heats of dilution were subtracted from the raw data. ITC data processing and curve fitting was done using the Origin program (MicroCal).\n(§2) Two-step competition ITC experiments for determining the Ka of c5a and iodide. In CH3CN:CHCl3 (5:95, v/v), the binding affinity of c5a for I^− was too high to be determined with direct NMR or ITC titration. Instead, two-step competition ITC experiments with Cl^− as the competitor were performed."}, "[2]": {"experiment": "1H NMR titration, binding of chloride", "details": "DMSO-d6:CDCl3 (15:85, v/v), 25° C., NMR titration (protons a and b)", "protocol": "(§3) ^1H NMR Titration methods. Titrations of 4c and 6c with anions as their tetra-n-butyl ammonium (TBA) salts were carried out by ^1H NMR (400 MHz on Bruker-400) at room temperature (298 K). 0.5 mL of receptor 4c (5.0 mM) or 6c (2.0 mM) were prepared in the rubber-cap NMR tubes. Aliquots of concentrated TBACl or TBAI solution (50 mM for the titration of 4c and 20 mM for the titration of 6c) containing the same amount of receptors were added into the receptor solution using 20 microliter pipette. An initial ^1H NMR spectrum was collected and additional spectra were obtained after each injection of TBACl or TBAI solution. All titration ^1H NMR spectra were stacked together and the chemical shifts of amide protons were then fitted to the proposed 1:1 binding model using BindFit v0.5 (http://app.supramolecular.org/bindfit/).\n(§4) Anion binding with four amides, i.e., L1mer-L4mer, was studied in the mixed solvents of CD3CN/CDCl3 (1/9, v/v) by titrating an amide host with 0 to 5 equivalents of tetrabutylammonium (n-Bu4N^+) salt of the corresponding anion. The binding of chloride, bromide, iodide, and nitrate was examined with the four amides in CDCl3 containing 10% CD3CN. The titration data were collected by monitoring the changes in chemical shifts of the backbone amide protons and the inner aromatic protons with varying ratios of the anion guests. Job plots indicate that these linear oligoamides and their anion guests bind in a 1:1 stoichiometry.\n(§5) The binding of anions by macrocycle 7c was examined in CH3CN/CHCl3 (6/4, v/v) and in DMSO by titrating with various equivalents of the salts of chloride, iodide. nitrate, and dihydrogen phosphate, with tetrabutylammonium (n-Bu4N^+) being the counterion ion. Following the changes in the chemical shifts of backbone amide protons and “inner” aromatic protons allowed the determination of binding constants.\n^1H NMR titration methods. Titrations of c5a and c5b with anions as their tetra-n-butylammonium (TBA), tetra-ethylammonium (TEA) and tetra-methylammonium (TMA) salts were carried out by ^1H NMR (400 MHz) at 25° C. […]"}, "[3]": {"experiment": "Isothermal titration calorimetry (ITC), I^−", "type": "binding", "details": "25° C.", "protocol": "as §1, §2"}, "[4]": {"experiment": "1H NMR titration, binding of nitrate", "details": "25° C.", "from_the_text": "as §4, §5\n(§6) ^1H NMR titration methods. Titrations of c5a and c5b with anions as their tetra-n-butylammonium (TBA), tetra-ethylammonium (TEA) and tetra-methylammonium (TMA) salts were carried out by ^1H NMR (400 MHz) at 25° C. 0.4 mL of corresponding hosts solutions were prepared in the rubber-cap NMR tubes. Aliquots of concentrated guest solution containing hosts were added into the NMR tubes using 20 microliter pipette. An initial ^1H NMR spectrum was collected and additional spectra were obtained after each injection of guest solution. All titration ^1H NMR spectra were stacked together and the chemical shifts of the internal aromatic CH proton were then fitted to 1:1 binding model using BindFit v0.5 (http://app.supramolecular.org/bindfit/) to evaluate binding constants to anions."}, "[5]": {"experiment": "1H NMR titration, binding of PF6^−", "details": "DMSO-d6:CDCl3 (15:85, v/v), 25° C., NMR titration (protons a and b)", "protocol": "as §6"}, "[6]": {"experiment": "1H NMR titration, binding of iodide", "details": "DMSO-d6:CDCl3 (15:85, v/v), 25° C.", "protocol": "as §3\nas §4, with “Job plots indicate that these linear oligoamides and their anion guests bind in a 1:1 stoichiometry.” left out"}, "[7]": {"experiment": "Solubility", "type": "physicochemical", "details": "CHCl3, CH2Cl2, DMF, and DMSO"}, "[8]": {"experiment": "1H NMR titration, binding of bromide", "details": "DMSO-d6:CDCl3 (15:85, v/v), 25° C., NMR titration (protons a and b)", "protocol": "[…] […] The titration data were collected by monitoring the changes in chemical shifts of the backbone amide protons and the inner aromatic protons with varying ratios of the anion guests. Job plots indicate that these linear oligoamides and their anion guests bind in a 1:1 stoichiometry.\nas §6"}, "[9]": {"experiment": "1H NMR titration, binding of IO4^−", "details": "DMSO-d6:CDCl3 (15:85, v/v), 25° C., NMR titration (protons a and b)", "protocol": "as §6"}}}
{"molecule": "CCCCCCCCOCC(C)(C)C(=O)Nc1ccc2cc1C(=O)Nc1ccc(NC(=O)C(C)(C)COCCCCCCCC)c(c1)C(=O)Nc1ccc(NC(=O)C(C)(C)COCCCCCCCC)c(c1)C(=O)Nc1ccc(NC(=O)C(C)(C)COCCCCCCCC)c(c1)C(=O)Nc1ccc(NC(=O)C(C)(C)COCCCCCCCC)c(c1)C(=O)N2", "note": "[c5a]", "values": [{"measurement": "Association constant Ka, 1:1 complex with IO4^−", "setting": "[1]; CH3CN:CHCl3 (5:95, v/v)", "value": "(2.54 ± 0.22) × 10^7 M^−1"}, {"measurement": "Association constant Ka, 1:1 complex with IO4^−", "setting": "[1]; DMSO:CHCl3 (5:95, v/v)", "value": "(1.72 ± 0.05) × 10^5 M^−1"}, {"measurement": "Association constant Ka, 1:1 complex with Cl^−", "setting": "[2]", "value": "(4.31 ± 0.12) × 10^3 M^−1"}, {"measurement": "Association constant Ka, 1:1 complex with I^−", "setting": "[3]; CH3CN:CHCl3 (5:95, v/v), two-step competition ITC with Cl^− as the competitor", "value": "(6.67 ± 0.81) × 10^7 ^f M^−1"}, {"measurement": "Association constant Ka, 1:1 complex with I^−", "setting": "[3]; CH3CN:CHCl3 (5:95, v/v), ITC", "value": "(7.78 ± 4.26) × 10^7 M^−1"}, {"measurement": "Association constant Ka, 1:1 complex with I^−", "setting": "[3]; DMSO-d6:CDCl3 (15:85, v/v) column, ITC measurements (footnote d)", "value": "(1.18 ± 0.03) × 10^4 ^d M^−1"}, {"measurement": "Association constant Ka, 1:1 complex with I^−", "setting": "[3]; DMSO:CHCl3 (5:95, v/v), ITC", "value": "(1.83 ± 0.08) × 10^5 M^−1"}, {"measurement": "Association constant Ka, 1:1 complex with NO3^−", "setting": "[4]; CD3CN:CDCl3 (80:20, v/v), NMR titration", "value": ">10^6 M^−1"}, {"measurement": "Association constant Ka, 1:1 complex with NO3^−", "setting": "[4]; DMSO-d6:CDCl3 (15:85, v/v), NMR titration (protons a and b)", "value": "(1.57 ± 0.13) × 10^5 M^−1"}, {"measurement": "Association constant Ka, 1:1 complex with PF6^−", "setting": "[5]", "value": "not detected"}, {"measurement": "Association constant Ka, 1:1 complex with I^−", "setting": "[6]; single NMR titration (protons a and b)", "value": "(2.73 ± 0.17) × 10^4 M^−1"}, {"measurement": "Association constant Ka, 1:1 complex with I^−", "setting": "[6]; triplicate NMR titrations (footnote c)", "value": "(3.77 ± 0.25) × 10^4 ^c M^−1"}, {"measurement": "solubility in organic solvents", "setting": "[7]", "value": "soluble"}, {"measurement": "Association constant Ka, 1:1 complex with Br^−", "setting": "[8]", "value": "(9.82 ± 1.08) × 10^3 M^−1"}, {"measurement": "Association constant Ka, 1:1 complex with IO4^−", "setting": "[9]", "value": "(1.18 ± 0.08) × 10^4 M^−1"}]}
